This note sets out measurements from patent US8956999B2, “Herbicides” (Syngenta Limited, priority 2007, dated 2015).

What all share (assay type): in vivo
The subject of assay [1] is Amaranthus retoflexus (AMARE). The assay can be described thus: Example B post-emergence herbicidal test, glasshouse. The note with it: Amaranthus retroflexus, 312 h, rate 250 g/ha, evaluated after 13 days, read-out: Post-Emergence Activity AMARE (100=total damage to plant; 0=no damage to plant). The method, then:
(§1) Seeds of a variety of test species were sown in standard soil in pots. After cultivation for one day (pre-emergence) or after 8 days cultivation (post-emergence) under controlled conditions in a glasshouse (at 24/16° C., day/night; 14 hours light; 65% humidity), the plants were sprayed with an aqueous spray solution derived from the formulation of the technical active ingredient in acetone/water (50:50) solution containing 0.5% Tween 20 (polyoxyethelyene sorbitan monolaurate, CAS RN 9005-64-5). The test plants were then grown in a glasshouse under controlled conditions in a glasshouse (at 24/16° C., day/night; 14 hours light; 65% humidity) and watered twice daily. After 13 days for pre and post-emergence, the test was evaluated (100=total damage to plant; 0=no damage to plant). Test Plants: Alopecurus myosuroides (ALOMY), Avena fatua (AVEFA), Setaria faberi (SETFA), Echinochloa crus-galli (ECHCG), Solanum nigrum (SOLNI) and Amaranthus retoflexus (AMARE)

The test system of assay [2] is Echinochloa crus-galli (ECHCG). Described as above. As to conditions: 312 h, rate 250 g/ha, evaluated after 13 days, read-out: Post-Emergence Activity ECHGG (100=total damage to plant; 0=no damage to plant). The method, then:
as §1

Assay [3] deals with Avena fatua (AVEFA). The description is as above. The note with it: 312 h, rate 250 g/ha, evaluated after 13 days, read-out: Post-Emergence Activity AVEFA (100=total damage to plant; 0=no damage to plant). The method, then: as §1
Assay [4] deals with Alopecurus myosuroides (ALOMY). Described as above. The note with it: 312 h, rate 250 g/ha, evaluated after 13 days, read-out: Post-Emergence Activity ALOMY (100=total damage to plant; 0=no damage to plant). The method, then:
as §1

For assay [5], the system named is Setaria faberi (SETFA). Described as above. As to conditions: 312 h, rate 250 g/ha, evaluated after 13 days, read-out: Post-Emergence Activity SEFTA (100=total damage to plant; 0=no damage to plant). The method, then: as §1
Assay [6] relates to Amaranthus retoflexus (AMARE). Nature of the assay: Example B pre-emergence herbicidal test, glasshouse. The note with it: Amaranthus retroflexus, 312 h, rate 250 g/ha, evaluated after 13 days, 100=total damage to plant, 0=no damage to plant. The method, then:
as §1

Assay [7] deals with Echinochloa crus-galli (ECHCG). Described as above. The note with it: Echinochloa crus-galli, 312 h, rate 250 g/ha, evaluated after 13 days, 100=total damage to plant, 0=no damage to plant, read-out: Pre-Emergence Activity ECHGG. The method, then:
as §1

The test system of assay [8] is Avena fatua (AVEFA). Described as above. The note with it: 312 h, rate 250 g/ha, evaluated after 13 days, 100=total damage to plant, 0=no damage to plant. The method, then: as §1
Assay [9] deals with Alopecurus myosuroides (ALOMY). The assay is described as above. As to conditions: 312 h, rate 250 g/ha, evaluated after 13 days, 100=total damage to plant, 0=no damage to plant. The method, then:
as §1

The test system of assay [10] is Setaria faberi (SETFA). The assay is described as above. As to conditions: Setaria faberi, 312 h, rate 250 g/ha, evaluated after 13 days, 100=total damage to plant, 0=no damage to plant, read-out: Pre-Emergence Activity SEFTA. The method, then: as §1

`Cc1sc(-c2ccc(Cl)cc2)cc1C1C(=O)C(C)(C)C(=O)C(C)(C)C1=O` [Compound T5]: the pest or weed control at 250 g/ha in assay [1] was 0%; in [2], 70%; in the assay with Avena fatua (AVEFA) [3], 0%; in assay [4] it was 40%; with Setaria faberi (SETFA) [5] it was 50%.

Regarding `CCc1sc(-c2c(C)cc(Cl)cc2F)nc1C1C(=O)C(C)(C)OC(C)(C)C1=O` [Compound T64], the pest or weed control at 250 g/ha in assay [6] amounted to 0%; in assay [7], 70%; with Avena fatua (AVEFA) [8], 0%; in assay [9], 0%; in the assay with Setaria faberi (SETFA) [10], 100%; in assay [1] it was 0%. Also, the pest or weed control at 250 g/ha amounted to 100% in assay [2], 60% in the assay with Avena fatua (AVEFA) [3], 20% in assay [4] and 100% with Setaria faberi (SETFA) [5].

For the compound `CCc1sc(-c2ccc(Br)cc2)nc1C1C(=O)C(C)(C)OC(C)(C)C1=O` [Compound T49], the pest or weed control at 250 g/ha in assay [6] is 0%; in assay [7] it was 60%; with Avena fatua (AVEFA) [8] it was 20%; in assay [9], 60%; in the assay with Setaria faberi (SETFA) [10], 80%; in assay [1], 20%. For the same compound, the pest or weed control at 250 g/ha (in assay [2]; in the assay on Avena fatua (AVEFA) [3]; in [4]; with Setaria faberi (SETFA) [5]) was 100% each time.

In the case of `Cc1sc(-c2ccc(I)cc2)nc1C1C(=O)C(C)(C)OC(C)(C)C1=O` [Compound T51], the pest or weed control at 250 g/ha in [6] came to 0%; in [7], 60%; with Avena fatua (AVEFA) [8], 80%; in assay [9], 40%; in the assay with Setaria faberi (SETFA) [10], 100%; in assay [1], 0%. The pest or weed control at 250 g/ha in assay [2] was determined as 90%; in the assay on Avena fatua (AVEFA) [3] it was 90%; in assay [4] it was 100%; with Setaria faberi (SETFA) [5], 100%.

On to `Cc1sc(-c2ccc(Cl)cc2F)nc1C1C(=O)C(C)(C)OC(C)(C)C1=O` [Compound T21], for which the pest or weed control at 250 g/ha was determined as 0% in assay [6]; 100% in [7]; 0% with Avena fatua (AVEFA) [8]; 60% in [9]; 100% in the assay with Setaria faberi (SETFA) [10]; 0% in assay [1]. Also, the pest or weed control at 250 g/ha in assay [2] was 100%; in the assay on Avena fatua (AVEFA) [3], 90%; in assay [4] it was 100%; in the assay with Setaria faberi (SETFA) [5] it was 100%.

Consider `Cc1sc(-c2ccc(Cl)cc2Cl)nc1C1C(=O)C(C)(C)C(=O)C(C)(C)C1=O` [Compound T45], for which the pest or weed control at 250 g/ha in [1] is 0%; in [2], 70%; in the assay with Avena fatua (AVEFA) [3], 0%; in assay [4] it was 30%; with Setaria faberi (SETFA) [5], 70%.

Regarding `Cc1sc(-c2ccc(Cl)cc2F)nc1C1C(=O)C(C)(C)C(=O)C(C)(C)C1=O` [Compound T9], the pest or weed control at 250 g/ha in [6] came to 0%; in assay [7], 20%; in the assay with Avena fatua (AVEFA) [8], 0%; in assay [9], 0%; in the assay with Setaria faberi (SETFA) [10], 40%; in assay [1], 0%. Further, the pest or weed control at 250 g/ha in assay [2] came to 90%; in the assay with Avena fatua (AVEFA) [3] it was 40%; in assay [4] it was 90%; with Setaria faberi (SETFA) [5] it was 80%.

In the case of `CCc1sc(-c2cc(F)c(Cl)cc2Cl)nc1C1C(=O)C(C)(C)OC(C)(C)C1=O` [Compound T65], the pest or weed control at 250 g/ha in [1] was determined as 0%; in assay [2] it was 100%; with Avena fatua (AVEFA) [3] it was 70%; in assay [4] it was 90%; in the assay with Setaria faberi (SETFA) [5], 100%.

As for `CCc1sc(-c2ccc(Cl)cc2F)nc1C1C(=O)C(C)(C)OC(C)(C)C1=O` [Compound T47], the pest or weed control at 250 g/ha in assay [6] amounted to 20%; in assay [7] it was 70%; in the assay on Avena fatua (AVEFA) [8] it was 90%; in assay [9], 70%; with Setaria faberi (SETFA) [10], 90%; in [1], 0%. Also, the pest or weed control at 250 g/ha (in assay [2]; in the assay with Avena fatua (AVEFA) [3]; in [4]; in the assay on Setaria faberi (SETFA) [5]) was 100% in each case.

As to `CCc1sc(-c2ccc(Br)cc2F)nc1C1C(=O)C(C)(C)OC(C)(C)C1=O` [Compound T54], the pest or weed control at 250 g/ha came to 20% in assay [6]; 100% in assay [7]; 90% in the assay with Avena fatua (AVEFA) [8]; 100% in assay [9]; 100% in the assay on Setaria faberi (SETFA) [10]; 0% in [1]. Moreover, the pest or weed control at 250 g/ha (in assay [2]; with Avena fatua (AVEFA) [3]; in [4]; with Setaria faberi (SETFA) [5]) was 100% in each case.

`Cc1sc(-c2ccc(C(F)(F)F)cc2)cc1C1C(=O)C(C)(C)C(=O)C(C)(C)C1=O` [Compound T27]: the pest or weed control at 250 g/ha in assay [1] stood at 30%; in assay [2] it was 30%; in the assay with Avena fatua (AVEFA) [3], 0%; in [4] it was 20%; in the assay on Setaria faberi (SETFA) [5], 50%.

With `Cc1sc(-c2ccc(F)cc2)cc1C1C(=O)C(C)(C)C(=O)C(C)(C)C1=O` [Compound T25], the pest or weed control at 250 g/ha stood at 0% in assay [1]; 20% in assay [2]; 0% in the assay on Avena fatua (AVEFA) [3]; 0% in [4]; 20% with Setaria faberi (SETFA) [5].

Regarding `CSc1ccc(-c2nc(C3C(=O)C(C)(C)OC(C)(C)C3=O)c(C)s2)cc1` [Compound T67], the pest or weed control at 250 g/ha in assay [1] is 0%; in assay [2], 90%; in the assay with Avena fatua (AVEFA) [3] it was 0%; in assay [4] it was 0%; in the assay on Setaria faberi (SETFA) [5], 70%.

As for `Cc1nc(-c2ccc(Cl)cc2)sc1C1C(=O)C(C)(C)OC(C)(C)C1=O` [Compound T66], the pest or weed control at 250 g/ha came out at 0% in assay [1]; 90% in assay [2]; 40% in the assay with Avena fatua (AVEFA) [3]; 70% in [4]; 80% in the assay with Setaria faberi (SETFA) [5].

With `Cc1cc(Cl)ccc1-c1nc(C2C(=O)C(C)(C)C(=O)C(C)(C)C2=O)c(C)s1` [Compound T44], the pest or weed control at 250 g/ha in [6] was determined as 0%; in assay [7], 30%; in the assay with Avena fatua (AVEFA) [8] it was 0%; in [9], 0%; in the assay with Setaria faberi (SETFA) [10], 0%.
